Data taken from the supplement of paper PMC7108870.

Columns and labels:
HEK293sieSTAT3(Y640F) [1] = test: drug sensitivity score (DSS), viability CellTiter-Glo (DSS (dimensionless)); higher = more growth inhibition; extreme values may be limits of the assay; details: 72 h; STAT3 variant: Y640F (constitutively active)
In short: (§1)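 For 72 hours at 37°C and 5% CO2, HEK293 cells overexpressing wild-type or mutant STAT3 and carrying a STAT3-dependent luciferase reporter were cultured on compounds at 5 concentrations in 10-fold dilutions. CellTox Green and then CellTiter-Glo signals were read, normalised to negative and positive control wells, and converted in Breeze into a drug sensitivity score based on dose-response curve area. Values are from one representative of two experiments.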

HEK293sieSTAT3(wt) [2] = test: as above; details: 72 h; STAT3 variant: wild type
In short: as §1

HEK293sieSTAT3(Y640F) [3] = test: drug sensitivity score (DSS), cytotoxicity CellTox Green (DSS (dimensionless)); higher = more cytotoxic; extreme values may be limits of the assay; details: 72 h; STAT3 variant: Y640F (constitutively active)
In short: as §1

HEK293sieSTAT3(wt) [4] = test: as above; details: 72 h; STAT3 variant: wild type
In short: as §1

| Structure (SMILES) | drug sensitivity score (HEK293sieSTAT3(Y640F) [1]) | drug sensitivity score (HEK293sieSTAT3(wt) [2]) | drug sensitivity score (HEK293sieSTAT3(Y640F) [3]) | drug sensitivity score (HEK293sieSTAT3(wt) [4]) |
| --- | --- | --- | --- | --- |
| O=C(O)C(=O)O.[NH-][C@@H]1CCCC[C@H]1[NH-].[Pt+2] [Oxaliplatin] (top concentration tested 100000 nM) | 16.9 | 19.3 | 5.26 | 12 |
| C=CCc1cccc(/C=N/NC(=O)CN2CCN(Cc3ccccc3)CC2)c1O [PAC-1] (top concentration tested 10000 nM) | 4.7 | 7.56 | 0 | 3.52 |
| O=C(Nc1cccnc1)N1CCC(Cc2cccc(Oc3ccc(C(F)(F)F)cn3)c2)CC1 [PF-3845] (top concentration tested 10000 nM) | 1.51 | 3.05 | 0 | 0 |
| COc1ccccc1S(=O)(=O)Nc1ccc2c(c1)CN(C)C(=O)N2 [PFI-1] (top concentration tested 10000 nM) | 5.5 | 5.96 | 0.33 | 6.8 |
| CN1CCN(c2cc(C(=O)Nc3ccc4c(c3)-c3c(c(C(N)=O)nn3-c3ccc(F)cc3)CC4)c(Cl)cn2)CC1 [PHA 408] (top concentration tested 10000 nM) | 9.12 | 8.88 | 5.61 | 8.63 |
| CCn1nnc2c(N3CCOCC3)nc(-c3ccc(NC(=O)Nc4ccc(C(=O)N5CCN(C)CC5)cc4)cc3)nc21 [PKI-402] (top concentration tested 2500 nM) | 16.7 | 16.8 | 0 | 5.48 |
| O=C(Nc1cc(Cl)cc2c1[nH]c1cnccc12)c1cccnc1 [PS-1145] (top concentration tested 25000 nM) | 0 | 3.94 | 1.94 | 0.08 |
| COc1cc(Br)c(Nc2nc(-c3c(C)nc4ncccn34)cs2)c(Br)c1 [PTC-209] (top concentration tested 10000 nM) | 16 | 15.7 | 0.1 | 2.2 |
| CC(=O)O[C@H]1C(=O)[C@@]2(C)[C@H]([C@H](OC(=O)c3ccccc3)[C@]3(O)C[C@H](OC(=O)[C@H](O)[C@@H](NC(=O)c4ccccc4)c4ccccc4)C(C)=C1C3(C)C)[C@]1(OC(C)=O)CO[C@@H]1C[C@@H]2O [Paclitaxel] (top concentration tested 1000 nM) | 16.4 | 23.2 | 0.91 | 16.8 |
| C1=N/C2=N/c3ccc(OCCN4CCCC4)c(c3)COC/C=C/COCc3cccc(c3)C(=C1)N2 [Pacritinib] (top concentration tested 10000 nM) | 12.1 | 11.1 | 6.22 | 10.8 |
| CC(=O)c1c(C)c2cnc(Nc3ccc(N4CCNCC4)cn3)nc2n(C2CCCC2)c1=O [Palbociclib] (top concentration tested 10000 nM) | 5.65 | 6.99 | 1.93 | 7.3 |
| COc1ccc(COc2cc3oc(=O)c4cc(C(C)O)ccc4c3cc2OC)cc1 (centres undefined) [Palomid-529] (top concentration tested 10000 nM) | 2.18 | 2.21 | 0 | 3.06 |
| Cc1[nH]c2ccccc2c1CCNCc1ccc(/C=C/C(=O)NO)cc1 [Panobinostat] (top concentration tested 1000 nM) | 20.6 | 20.4 | 11.6 | 17.8 |
| C/C(=C\c1csc(C)n1)[C@@H]1C[C@@H]2O[C@]2(C)CCC[C@H](C)[C@H](O)[C@@H](C)C(=O)C(C)(C)[C@@H](O)CC(=O)O1 [Patupilone] (top concentration tested 1000 nM) | 19.1 | 21.9 | 4.17 | 15.5 |
| Cc1ccc(Nc2nccc(N(C)c3ccc4c(C)n(C)nc4c3)n2)cc1S(N)(=O)=O [Pazopanib] (top concentration tested 10000 nM) | 0.04 | 0.89 | 0 | 0 |
| CCOc1cc2ncc(C#N)c(Nc3ccc(F)c(Cl)c3)c2cc1NC(=O)/C=C/CN(C)C [Pelitinib] (top concentration tested 2500 nM) | 6.05 | 9.21 | 1.79 | 3.88 |
| Nc1nc2[nH]cc(CCc3ccc(C(=O)N[C@@H](CCC(=O)O)C(=O)O)cc3)c2c(=O)[nH]1 [Pemetrexed] (top concentration tested 10000 nM) | 12.9 | 13.3 | 0 | 2.93 |
| OC[C@H]1O[C@@H](n2cnc3c2N=CNC[C@H]3O)C[C@@H]1O [Pentostatin] (top concentration tested 10000 nM) | 0.02 | 1.4 | 0 | 0 |
| CCCCCCCCCCCCCCCCCCOP(=O)([O-])OC1CC[N+](C)(C)CC1 [Perifosine] (top concentration tested 2500 nM) | 5.21 | 2.19 | 0 | 0.08 |
| NS(=O)(=O)OC[C@@H]1C[C@@H](n2ccc3c(N[C@H]4CCc5ccccc54)ncnc32)C[C@@H]1O [Pevonedistat] (top concentration tested 10000 nM) | 22.3 | 23.6 | 3.23 | 7.13 |
| FC(F)(F)c1ccc(CNc2ccc(Cc3c[nH]c4ncc(Cl)cc34)cn2)cn1 [Pexidartinib] (top concentration tested 10000 nM) | 3.45 | 2.35 | 0 | 0 |
